Like-named read-outs stand apart in the source and are kept apart here.
Tests used:
mouse Lewis lung cancer [1] = assay: Mouse Lewis lung cancer, toe subcutaneous inoculation, anti-tumor test; conditions: po × 14bid
Excerpt: (§1) human breast cancer Bcap-37 model, human lung cancer A549 model, human intestinal cancer LOVO model, human stomach cancer MGC model and human liver cancer QGY model, with tumor cell lines being of the second generation or more, mouse B16 melanoma cell line, mouse Lewis lung cancer model, mouse sarcoma s180 model, all passaged and preserved in Pharmacological Division of Shanghai Institute of Pharmaceutical Industry. 3. Experiment Animals Origins: nude mice, 6-week old, 18-22 g/mouse, provided by Laboratory Animal Center of Chinese Academy of Sciences, Shanghai Branch, with certification No. 2001A032. C57BL/6 mice and Kunming mice, 18-22 g/mouse, provided by Laboratory Animal Center of Chinese Academy of Sciences, Shanghai Branch, with certification SYXK (Shanghai) 2004-0015. Gender: male or female, the same gender for each batch in experiment Animal numbers: 10 mice and 10 nude mice for each of positive control group and test group in experiment, and 20 for negative control group. 4. Experiment Design Dose Settings: doses for 20(R)-ginsenoside Rg3 octo-acetate, 20(R)-ginsenoside Rg3 octo-n-butyrate and 20(R)-ginsenoside Rg3 octo-n-propionate were set as high-dose group (0.3 mg/kg/d), medium-dose group (0.06 mg/kg/d), and low-dose group (0.012 mg/kg/d). Dosage regimen: oral administration, twice daily. human tumor model and cell-inoculated mouse model: po×14 bid; mouse tumor-inoculated model: po×10 bid. Control Trial: negative control group: given with the same volume of 5% CMC-Na as the test group, and the same dosage regimen as the test group. positive control group: Cyclophosphamide CTX 30 mg/kg, […] 5. Experiment Method and Key Steps 5.1 Anti-Tumor Test 5.1.1 Subcutaneous Inoculation Model
(§2) Tumor cells of vigorous growth stage were taken under sterile condition and made into cell suspensions of about 1-2×10^7/ml by homogenization, the suspensions were inoculated subcutaneously at 0.2 ml/mouse in host mice and repeated on the next day according to the experiment design, the animals in each group were slaughtered after about three weeks, the tumors were collected and weighed, and the tumor inhibition rates were calculated according to the following equation: tumor inhibition rate %=[(average tumor weight of control group-average tumor weight of treatment group)/average tumor weight of control group]×100%

mouse melanoma B16 cells = assay: Mouse melanoma B16 tail vein inoculation, lung metastasis; conditions: po × 14bid
Excerpt: (§3) human breast cancer Bcap-37 model, human lung cancer A549 model, human intestinal cancer LOVO model, human stomach cancer MGC model and human liver cancer QGY model, with tumor cell lines being of the second generation or more, mouse B16 melanoma cell line, mouse Lewis lung cancer model, mouse sarcoma s180 model, all passaged and preserved in Pharmacological Division of Shanghai Institute of Pharmaceutical Industry. 3. Experiment Animals Origins: nude mice, 6-week old, 18-22 g/mouse, provided by Laboratory Animal Center of Chinese Academy of Sciences, Shanghai Branch, with certification No. 2001A032. C57BL/6 mice and Kunming mice, 18-22 g/mouse, provided by Laboratory Animal Center of Chinese Academy of Sciences, Shanghai Branch, with certification SYXK (Shanghai) 2004-0015. Gender: male or female, the same gender for each batch in experiment Animal numbers: 10 mice and 10 nude mice for each of positive control group and test group in experiment, and 20 for negative control group. 4. Experiment Design Dose Settings: doses for 20(R)-ginsenoside Rg3 octo-acetate, 20(R)-ginsenoside Rg3 octo-n-butyrate and 20(R)-ginsenoside Rg3 octo-n-propionate were set as high-dose group (0.3 mg/kg/d), medium-dose group (0.06 mg/kg/d), and low-dose group (0.012 mg/kg/d). Dosage regimen: oral administration, twice daily. human tumor model and cell-inoculated mouse model: po×14 bid; mouse tumor-inoculated model: po×10 bid. Control Trial: negative control group: given with the same volume of 5% CMC-Na as the test group, and the same dosage regimen as the test group. positive control group: Cyclophosphamide CTX 30 mg/kg, MMC 2 mg/kg and 5Fu 30 mg/kg by intraperitoneal or intravenous administration, once daily, for seven consecutive days. 5. Experiment Method and Key Steps 5.1 Anti-Tumor Test 5.1.1 Subcutaneous Inoculation Model

mouse sarcoma S180 cells = assay: Mouse sarcoma S180 metastasis model; conditions: po × 14bid
Excerpt: as §3

mouse Lewis lung cancer [2] = assay: Mouse Lewis lung cancer (subcutaneous inoculation) metastasis model; conditions: po × 14bid
Excerpt: as §3, §2

[3] = tested on: human intestinal cancer LOVO cells; conditions: po × 14bid
Excerpt: as §1
LOVO intestinal cancer cells (cultured in vitro) of logarithmic growth stage were taken under sterile condition and prepared into cell suspensions of about 1.8×10^7/ml using RPMI1640 culture medium as diluent. The nude mice were subjected to general anesthesia and cut in belly after routine disinfection to belly skin, the spleens were taken out and inoculated with LOVO intestinal cancer cell suspensions (0.05 ml/mouse) and then restored, the incisions were sutured, and the mice were placed in the cages and then put in the laminar flow rack.

[4] = tested on: human liver cancer QGY cells; assay: Human liver cancer QGY liver in-situ inoculation, survival; conditions: po × 14bid
Excerpt: as §3
Under sterile condition, the in vivo passage of the second generation of QGY tumor source of vigorous growth stage was prepared into cell suspensions of about 1-2×10^7/ml by homogenization (1:6), and the homogenates were filtered using 100-mesh stainless steel screen, getting ready for use. The nude mice were disinfected routinely and anaesthetized and cut at the xiphoid in the middle of the abdominal cavity to expose the liver, the cell suspensions (0.05 ml) were injected into liver parenchyma using imported 28 ga ½ ml syringes, the abdominal cavity was closed and then sutured layer by layer. The nude mice were fed in the laminar flow rack, with all the feed, packing, cage and contact instruments being sterilized under high pressure before use.

[5] = Solubility of the isolated products; format: physicochemical

## CC(=O)OC[C@H]1O[C@@H](OC2CC[C@]3(C)C(CC[C@@]4(C)C3C[C@H](OC(C)=O)C3C([C@@](C)(O)CCC=C(C)C)CC[C@@]34C)C2(C)C)[C@H](OC2O[C@H](COC(C)=O)[C@@H](OC(C)=O)[C@H](OC(C)=O)[C@H]2OC(C)=O)[C@@H](OC(C)=O)[C@@H]1OC(C)=O (stereo partly drawn) [Rg3-octo-acetate, 20 (R)-ginsenoside Rg3 octaacetate]
Mouse Lewis lung cancer [1]; 0.012 mg/kg/d
  Tumor inhibition rate %: 50.15%
  Tumor-bearing toe weight (g) X ± SD: 0.444 ± 0.09 g
Mouse Lewis lung cancer [1]; 0.06 mg/kg/d
  Tumor inhibition rate %: 58.89%
  Tumor-bearing toe weight (g) X ± SD: 0.366 ± 0.09 g
Mouse Lewis lung cancer [1]; 0.3 mg/kg/d
  Tumor inhibition rate %: 71.09%
  Tumor-bearing toe weight (g) X ± SD: 0.633 ± 0.08 g
Mouse melanoma B16 cells; 0.012 mg/kg/d
  Anti-metastasis rate %: 50.90%
  Lung clone numbers (mice) X ± SD: 23.62 ± 7.0
Mouse melanoma B16 cells; 0.06 mg/kg/d
  Anti-metastasis rate %: 63.87%
  Lung clone numbers (mice) X ± SD: 17.38 ± 7.1
Mouse melanoma B16 cells; 0.3 mg/kg/d
  Anti-metastasis rate %: 79.98%
  Lung clone numbers (mice) X ± SD: 9.63 ± 7.9
Mouse sarcoma S180 cells; 0.012 mg/kg/d
  Anti-metastasis rate %: 51.50%
  Lung clone numbers (mice) X ± SD: 1.43 ± 7.1
Mouse sarcoma S180 cells; 0.06 mg/kg/d
  Anti-metastasis rate %: 65.80%
  Lung clone numbers (mice) X ± SD: 1.01 ± 7.2
Mouse sarcoma S180 cells; 0.3 mg/kg/d
  Anti-metastasis rate %: 78.94%
  Lung clone numbers (mice) X ± SD: 0.62 ± 7.3
Mouse Lewis lung cancer [2]; 0.012 mg/kg/d
  Anti-metastasis rate %: 50.30%
  Lung clone numbers (mice) X ± SD: 1.38 ± 0.13
Mouse Lewis lung cancer [2]; 0.06 mg/kg/d
  Anti-metastasis rate %: 58.90%
  Lung clone numbers (mice) X ± SD: 1.14 ± 0.12
Mouse Lewis lung cancer [2]; 0.3 mg/kg/d
  Anti-metastasis rate %: 69.96%
  Lung clone numbers (mice) X ± SD: 0.84 ± 0.15
[3]; 0.012 mg/kg/d
  Average survival (d) X ± SD: 24.59 ± 4.5 days
  Life extension rate T/C × %: 179.99%
[3]; 0.06 mg/kg/d
  Average survival (d) X ± SD: 25.80 ± 4.8 days
  Life extension rate T/C × %: 188.90%
[3]; 0.3 mg/kg/d
  Average survival (d) X ± SD: 31.50 ± 5.1 days
  Life extension rate T/C × %: 230.59%
[4]; 0.012 mg/kg/d
  Animal body weight (g) Start: 19.1 g
  Animal body weight (g) end: 25.2 g
  Average survival (d) X ± SD: 37.26 ± 4.5 days
  Life extension rate T/C × %: 159.58%
[4]; 0.06 mg/kg/d
  Animal body weight (g) Start: 19.1 g
  Animal body weight (g) end: 24.3 g
  Average survival (d) X ± SD: 38.90 ± 4.1 days
  Life extension rate T/C × %: 166.59%
[4]; 0.3 mg/kg/d
  Animal body weight (g) Start: 19.3 g
  Animal body weight (g) end: 24.8 g
  Average survival (d) X ± SD: 42.49 ± 5.0 days
  Life extension rate T/C × %: 181.98%
[5]; ethanol
  Solubility in ethanol: soluble
[5]; water
  Solubility in water: soluble

Reference: US9969766B2, “20(R)-ginsenoside Rg3 polyacylated derivatives, preparation and application thereof” (priority 2014, dated 2018)
